# Experiments:
# Type in all cases: in vivo
# Blattalla germanica = experiment: Experimental Example 3: treated filter paper with sucrose bait, German cockroach; details: 500 ppm, 0.7 ml on filter paper; two male imagoes; after 6 days
# Method: A filter paper having a diameter of 5.5 cm was spread on the bottom of a polyethylene cup having a diameter of 5.5 cm and 0.7 ml of the experimental pesticidal solution was added dropwise onto the filter paper. As a bait 30 mg of sucrose was uniformly placed on the filter paper. Into the polyethylene cup, two male Blattalla germanica imagoes were released and the cup was sealed with a lid. After 6 days, the number of surviving Blattalla germanica was examined and the death rate of the pest was calculated.
# Megaselia spiracularis = experiment: Experimental Example 8: treated filter paper suspended in glass chamber, Megaselia spiracularis; details: 2.5 ml of 2% (w/v) acetone solution on filter paper; 70 cm cube chamber; 2 hours exposure, 24 hours later
# Method: A 2% (w/v) solution of the present compound (31) in acetone was prepared. Onto a filter paper with 10 cm×12.5 cm, 2.5 ml of the solution was added dropwise uniformly and then air-dried. This filter paper was suspended from the center of the ceiling of a glass chamber with 70 cm (width)×70 cm (depth)×70 cm (height) and therein 20 imagoes of Megaselia spiracularis were released. After 2 hours, all test pests were collected, put in a plastic cup together with absorbent cotton impregnated with 5% sugar water, and then left at 25° C. After 24 hours, the number of surviving Megaselia spiracularis was examined and the death rate was calculated.
# Blattella germanica [1] = experiment: Experimental Example 14: topical application, Blattella germanica; details: 1 μl of 1% (w/v) acetone solution onto sternum of thorax of female imagoes; after 7 days
# Method: 1% (w/v) solutions of the present compounds (4), (20), (22), (23), (24), (29), (30), (31), (35), (36), (37), (38), (46), (53), (54), (56), (57), (59), (61), (66), (67), (68), (69), (70), (71), (79), (81), (83), (84), (89), and (90) in acetone were prepared. Onto the sternum of the thorax of female imagoes of Blattella germanica, 1 μl of the acetone solution was added dropwise. The imagoes were transferred to a plastic cup having a diameter of about 9 cm and a height of about 4.5 cm and left together with feed and water at 25° C. After 7 days, the number of surviving Blattella germanica was examined and the death rate of the pest was calculated. 10 imagoes of Blattella germanica were put in a cup and three replicate experiments were performed.
# Periplaneta fuliginosa = experiment: Experimental Example 16: treated filter paper in paper box, Periplaneta fuliginosa; details: 0.1 ml of 5% (w/v) acetone solution on filter paper in paper box; after 7 days
# Method: 5% (w/v) solutions of the present compounds (23), (24) and (31) in acetone were prepared. 0.1 ml of the solution was added dropwise onto a filter paper with 2 cm×2 cm and then air-dried. This filter paper was attached to the center of the inside bottom of a paper box having 10 cm (width)×2 cm (height)×7 cm (depth) with a two-sided tape. One hole of 2 mm in width and 2 cm in height was made through one side of this box. This box was placed in a plastic vat with 25 cm×20 cm×8 cm in height and therein 3 females and 3 males of Periplaneta fuliginosa were released. The inside wall of the plastic vat used in this experiment was coated with talc for preventing the escape of cockroaches. The plastic vat contained feed and water and left at 25° C. After 7 days, Periplaneta fuliginosa was observed and the death rate of the pest was calculated. This experiment was repeated two times.
# Blattella germanica [2] = experiment: Experimental Example 18: smoking preparation in Peet-Grady chamber, Blattella germanica; details: smoking preparation (Formulation Example 16); 2 hours exposure, after 72 hours
# Method: Plastic cups (diameter: 12.5 cm, height: 8 cm) containing 10 (5 males and 5 females) imagoes of Blattella germanica were placed at the two corners of a Peet-Grady chamber with 1.8 m (width)×1.8 m (depth)×1.8 m (height). A plastic container containing water was placed at the center of the bottom of the Peet-Grady chamber and a smoking preparation of the present compound (31) prepared according to Formulation Example 16 was placed in this plastic cup. After 2 hours, Blattella germanica was collected, transferred to a 200 mL plastic cup, and left together with feed and water at 25° C. After 72 hours, the number of surviving Blattella germanica was examined and the death rate of the pest was calculated.
# Formica fusca japonica = experiment: Experimental Example 23: treated filter paper on cup lid, Formica fusca japonica; details: 0.1 ml of 5% (w/v) acetone solution on filter paper on lid; after 7 days
# Method: A 5% (w/v) solution of the present compound (31) in acetone is prepared. 0.1 ml of the solution is added dropwise to a filter paper with 2 cm×2 cm and then air-dried. 10 imagoes of Formica fusca japonica are released in a plastic cup having a diameter of 12.5 cm and a height of 8 cm. After feed and water are placed therein, the cup is closed with a lid. The aforementioned pesticide-treated filter paper is attached to the inner surface of the lid. In addition, the inside wall of the cup is coated with talc for preventing the climbing of ants. This cup is kept at 25° C.
# Culex pipiens pallens [3] = experiment: Experimental Example 26: liquid-absorbing wick-type heat-vaporizing product, Culex pipiens pallens; details: liquid-absorbing wick-type product (Formulation Example 19); 20 minutes exposure, after 24 hours
# Description: A part of a liquid-absorbing wick-type heat-vaporizing pesticidal product of the present compound (31) prepared according to Formulation Example 19 is set on a heater for a liquid absorbing wick-type heat-vaporizing pesticide, and then placed on the center of the floor of a chamber having 70 cm (width)×70 cm (depth)×70 cm (height). After the part of a liquid-absorbing wick-type heat-vaporizing pesticidal product is initiated to be heated with the heater, about 20 female imagoes of Culex pipiens pallens are released in the chamber. After 20 minutes, all test pests are collected, placed in a plastic cup together with absorbent cotton impregnated with 5% sugar water, and left at 25° C.
# Culex pipiens pallens [4] = experiment: Experimental Example 27: fan-ventilated knitted fabric preparation, Culex pipiens pallens; details: preparation of Formulation Example 10 ventilated by electric fan; 20 minutes exposure, after 24 hours
# Method: A preparation of the present compound (31) prepared according to Formulation Example 10 is set at the upper part of an electric fun shown in FIG. 5 and then placed on the center of the floor of a chamber having 70 cm (width)×70 cm (depth)×70 cm (height). After the electric fan is operated to initiate to ventilate the preparation, about 20 female imagoes of Culex pipiens pallens are released in the chamber. After 20 minutes, all test pests are collected, placed in a plastic cup together with absorbent cotton impregnated with 5% sugar water, and left at 25° C.
smiles,measurement,setting,value
N#CC(C#N)(CCC(F)(F)F)CC(F)(F)C(F)(F)C(F)(F)C(F)F [(31)],death rate of the pest,Blattalla germanica,100%
same,death rate of the pest,Megaselia spiracularis,100%
same,death rate of the pest,Blattella germanica [1],100%
same,death rate of the pest,Periplaneta fuliginosa,100%
same,death rate of the pest,Blattella germanica [2],100%
same,pesticidal effect,Formica fusca japonica,pesticidal effect on Formica fusca japonica is confirmed
same,pesticidal effect,Culex pipiens pallens [3],pesticidal effect on Culex pipiens pallens is confirmed
same,pesticidal effect,Culex pipiens pallens [4],pesticidal effect on Culex pipiens pallens is confirmed

# From patent US20070112068A1, “Nitrile compound and its use in pest control” (priority 2003, published 2007)
